Data: patent US6603046B1, “Bis-aromatic a,β-unsaturated ketones” (Lica Pharmaceuticals A/S, priority 1992, dated 2003)
Converted amounts (≈) assume the structure as drawn. Like-named read-outs stand apart in the source and are kept apart here.

How the values were obtained:
human lymphocytes = assay: Lymphocyte Proliferation Assay, 3H-thymidine incorporation (Example 13); conditions: Homo sapiens, Lymphocyte, read-out: inhibition of lymphocytes (lower figure)
P. falciparum = P. falciparum growth in vitro (Table 14.1, strain not stated); format: cell-based; conditions: Plasmodium falciparum, read-out: inhibition of malaria parasites (middle figure) (converted)
Experimental: The P. falciparum experimental setup was as described in Example 15.
Testing of the effect of drugs and serum on the in vitro growth of the parasites. The experiments in which compounds were tested for their ability to inhibit parasite growth were performed by a modification of the method originally described by Jensen et al. (1982). Fifty μl of parasitized erythrocytes (parasitemia approximately 1%) in a concentration of 5×10^8/ml and 50 μl of RPMI medium containing different concentrations of the test compound was added to each well of a 96 well flat-bottomed microtiter plate (Nunc). The cultures were then incubated for 48 hours, 24 hours before termination of the culture adding 20 μl of 3-H-hypoxanthine (40 uCi/ml) (New England Nuclear, Boston, Mass., USA) was added to each well. The cultures were then harvested onto glass fiber filters using a Skatron cell harvester (Skatron, Lierbyen, Norway), and the incorporation of 3-H-hypoxanthine into the DNA of dividing parasites was determined by liquid scintillation spectrometry.

[1] = system: chloroquine-sensitive P. falciparum 3D7A strain; assay: In vitro growth of P. falciparum 3D7A, 3H-hypoxanthine uptake (Example 15); format: cell-based, Plasmodium falciparum
L. major promastigotes [2] = assay: L. major promastigotes from 4-days cultures, 3H-thymidine uptake (Examples 5, 14); format: cell-based, Leishmania major; conditions: Leishmania major, Table 14.1, read-out: percentage inhibition of promastigotes (upper figure)
Procedure, shortened: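 Promastigotes harvested on day 4 of culture were exposed to compound, then pulsed with 100 μC 3H-thymidine for a further 18 h. Cells were collected on filter paper, washed, and incorporated radioactivity counted by scintillation.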

L. major promastigotes [3] = assay: In vitro growth of L. major promastigotes, 3H-thymidine uptake (Example 4); format: cell-based, Leishmania major; conditions: in vitro L. major growth test
P. yoelii strain YM = P. yoelii strain YM infection in mice, parasitemia and mortality (Example 16); format: in vivo, BALB/c mice
[4] = system: chloroquine resistant P. falciparum DD2 strain; assay: In vitro growth of P. falciparum DD2, 3H-hypoxanthine uptake (Example 15); format: cell-based, Plasmodium falciparum; conditions: Plasmodium falciparum, DD2, read-out: concentration in which parasite growth was retarded by 50%
[5] = Rate of the reaction between N-acetyl-L-cysteine and chalcones, HPLC; format: physicochemical; conditions: methanol-water-potassium phosphate buffer pH 7.5, 30° C.; first order
Source text: The decline of the chalcone concentration was followed by HPLC. The following experimental setups were used: 1. […] 2. […] This system was used i the case of 4′-methoxychalcone. The rate of decline of the chalcone concentration was followed by HPLC. The rate constant was estimated using Grafit and assuming that the reaction followed first order kinetic; i.e.: [c]=[c0]exp(−kt) where [c] is the concentration of the chalcone in question at time t, [c0] is the concentration of the chalcone in question at time zero, k is the rate constant, and t the time.

[6] = D + 10, i.p. 0.5 mg/kg/day once daily D0-D + 3
[7] = D + 12, i.p. 0.5 mg/kg/day once daily D0-D + 3
[8] = D + 14, i.p. 0.5 mg/kg/day once daily D0-D + 3
[9] = D + 16, i.p. 0.5 mg/kg/day once daily D0-D + 3
[10] = D + 16, i.p. 2.5 mg/kg/day once daily D0-D + 3
[11] = D + 18, i.p. 0.5 mg/kg/day once daily D0-D + 3
[12] = D + 18, i.p. 2.5 mg/kg/day once daily D0-D + 3
[13] = D + 20, i.p. 0.5 mg/kg/day once daily D0-D + 3
[14] = D + 20, i.p. 2.5 mg/kg/day once daily D0-D + 3
[15] = D + 20, i.p. 5 mg/kg/day once daily D0-D + 3

O=C(/C=C/c1ccccc1)c1ccc(O)cc1 [4′-Hydroxychalcone, 4′-hydroxychalcone]
inhibition at 1 µg/mL (human lymphocytes): 3.6%
inhibition at 5 µg/mL (human lymphocytes): 10.2%
inhibition at 10 µg/mL (human lymphocytes): 17%
inhibition at 0.5 µg/mL (P. falciparum; 0.5 μg/ml): 29.9%
inhibition at 1 µg/mL (P. falciparum; 1 μg/ml): 40.5%
inhibition at 5 µg/mL (P. falciparum; 5 μg/ml): 64.3%
inhibition at 10 µg/mL (P. falciparum; 10 μg/ml): 95.6%
IC50 ([1]; Plasmodium falciparum; read-out: concentration in which growth was retarded by 50%): 1 to 5 µg/mL (≈ 4.46 to 22.3 µM)
Percentage inhibition of 3H-hypoxanthine uptake (mean ± SEM) ([1]; title: percentage inhibition of 3H-hypoxanthine uptake; 0.5 μg/ml): 29.9 ± 10.7%
Percentage inhibition of 3H-hypoxanthine uptake (mean ± SEM) ([1]; title: percentage inhibition of 3H-hypoxanthine uptake; 1 μg/ml): 40.5 ± 11.1%
Percentage inhibition of 3H-hypoxanthine uptake (mean ± SEM) ([1]; title: percentage inhibition of 3H-hypoxanthine uptake; 5 μg/ml): 64.2 ± 8.5%
Percentage inhibition of 3H-hypoxanthine uptake (mean ± SEM) ([1]; title: percentage inhibition of 3H-hypoxanthine uptake; 10 μg/ml): 95.5 ± 1.1%
inhibition at 0.5 µg/mL (L. major promastigotes [2]; 0.5 μg/ml): 26.4 ± 6.5%
inhibition at 1 µg/mL (L. major promastigotes [2]; 1 μg/ml): 37.3 ± 13.6%
inhibition at 5 µg/mL (L. major promastigotes [2]; 5 μg/ml): 73.4 ± 15.3%
inhibition at 10 µg/mL (L. major promastigotes [2]; 10 μg/ml): 90.1 ± 6.5%

CC(C)=CCc1c(O)ccc(C(=O)/C=C/c2cc(O)c3c(c2)C=CC(C)(C)O3)c1O [(A)]
antiparasitic effect in bioassay-guided fractionation (L. major promastigotes [3]): Only the latter compound showed major antiparasitic effects

CCN(CC)CCCC(C)Nc1ccnc2cc(Cl)ccc12 (stereo not shown) [Chloroquine, chloroquine phosphate, reference compound]
% parasitemia (mean ± SEM) (P. yoelii strain YM; D + 4, i.p. 0.5 mg/kg/day once daily D0-D + 3): 0.9 ± 0.5%
% parasitemia (mean ± SEM) (P. yoelii strain YM; D + 4, i.p. 2.5 mg/kg/day once daily D0-D + 3): 0.2 ± 0.2%
% parasitemia (mean ± SEM) (P. yoelii strain YM; D + 4, i.p. 5 mg/kg/day once daily D0-D + 3): 0.02 ± 0.04%
% parasitemia (mean ± SEM) (P. yoelii strain YM; D + 6, i.p. 0.5 mg/kg/day once daily D0-D + 3): 24 ± 8.6%
% parasitemia (mean ± SEM) (P. yoelii strain YM; D + 6, i.p. 2.5 mg/kg/day once daily D0-D + 3): 2.4 ± 2.2%
% parasitemia (mean ± SEM) (P. yoelii strain YM; D + 6, i.p. 5 mg/kg/day once daily D0-D + 3): 0%
% parasitemia (mean ± SEM) (P. yoelii strain YM; D + 8, i.p. 0.5 mg/kg/day once daily D0-D + 3): 57.4 ± 4.2%
% parasitemia (mean ± SEM) (P. yoelii strain YM; D + 8, i.p. 2.5 mg/kg/day once daily D0-D + 3): 28.3 ± 16.2%
% parasitemia (mean ± SEM) (P. yoelii strain YM; D + 8, i.p. 5 mg/kg/day once daily D0-D + 3): 0.1 ± 0.17%
% parasitemia (mean ± SEM) (P. yoelii strain YM; [6]): 66.3 ± 6.6%
mortality (no. of dead mice/total no. of tested mice) (P. yoelii strain YM; [6]): (2/5)
% parasitemia (mean ± SEM) (P. yoelii strain YM; D + 10, i.p. 2.5 mg/kg/day once daily D0-D + 3): 33.7 ± 19.8%
% parasitemia (mean ± SEM) (P. yoelii strain YM; D + 10, i.p. 5 mg/kg/day once daily D0-D + 3): 2.8 ± 2.7%
% parasitemia (mean ± SEM) (P. yoelii strain YM; [7]): 49.7 ± 17.6%
mortality (no. of dead mice/total no. of tested mice) (P. yoelii strain YM; [7]): (2/5)
% parasitemia (mean ± SEM) (P. yoelii strain YM; D + 12, i.p. 2.5 mg/kg/day once daily D0-D + 3): 40.2 ± 21%
% parasitemia (mean ± SEM) (P. yoelii strain YM; D + 12, i.p. 5 mg/kg/day once daily D0-D + 3): 13 ± 4.4%
% parasitemia (mean ± SEM) (P. yoelii strain YM; [8]): 35.3 ± 4.7%
mortality (no. of dead mice/total no. of tested mice) (P. yoelii strain YM; [8]): (2/5)
% parasitemia (mean ± SEM) (P. yoelii strain YM; D + 14, i.p. 2.5 mg/kg/day once daily D0-D + 3): 37.4 ± 19.8%
% parasitemia (mean ± SEM) (P. yoelii strain YM; D + 14, i.p. 5 mg/kg/day once daily D0-D + 3): 22.4 ± 6.1%
% parasitemia (mean ± SEM) (P. yoelii strain YM; [9]): 18.5 ± 19.1%
mortality (no. of dead mice/total no. of tested mice) (P. yoelii strain YM; [9]): (3/5)
% parasitemia (mean ± SEM) (P. yoelii strain YM; [10]): 4.7 ± 4.6%
mortality (no. of dead mice/total no. of tested mice) (P. yoelii strain YM; [10]): (2/5)
% parasitemia (mean ± SEM) (P. yoelii strain YM; D + 16, i.p. 5 mg/kg/day once daily D0-D + 3): 62.2 ± 24.5%
% parasitemia (mean ± SEM) (P. yoelii strain YM; [11]): 9%
mortality (no. of dead mice/total no. of tested mice) (P. yoelii strain YM; [11]): 4/5
% parasitemia (mean ± SEM) (P. yoelii strain YM; [12]): 0%
mortality (no. of dead mice/total no. of tested mice) (P. yoelii strain YM; [12]): 2/5
% parasitemia (mean ± SEM) (P. yoelii strain YM; D + 18, i.p. 5 mg/kg/day once daily D0-D + 3): 75.2 ± 3.3%
% parasitemia (mean ± SEM) (P. yoelii strain YM; [13]): 0%
mortality (no. of dead mice/total no. of tested mice) (P. yoelii strain YM; [13]): 4/5
% parasitemia (mean ± SEM) (P. yoelii strain YM; [14]): 0%
mortality (no. of dead mice/total no. of tested mice) (P. yoelii strain YM; [14]): 2/5
% parasitemia (mean ± SEM) (P. yoelii strain YM; [15]): 50 ± 16.4%
mortality (no. of dead mice/total no. of tested mice) (P. yoelii strain YM; [15]): (1/5)
IC50 ([1]; Plasmodium falciparum, read-out: concentration in which growth was retarded by 50%): 38 to 75 µg/mL
Percentage inhibition of 3H-hypoxanthine uptake (mean ± SEM) ([1]; title: percentage inhibition of 3H-hypoxanthine uptake; 38 ng/ml): 34.0 ± 6.1%
Percentage inhibition of 3H-hypoxanthine uptake (mean ± SEM) ([1]; title: percentage inhibition of 3H-hypoxanthine uptake; 75 ng/ml): 80.2 ± 3.7%
Percentage inhibition of 3H-hypoxanthine uptake (mean ± SEM) ([1]; title: percentage inhibition of 3H-hypoxanthine uptake; 150 ng/ml): 97.1 ± 1.0%
Percentage inhibition of 3H-hypoxanthine uptake (mean ± SEM) ([1]; title: percentage inhibition of 3H-hypoxanthine uptake; 300 ng/ml): 98.8 ± 0.3%
IC50 [4]: 0.075 to 0.15 µg/mL

O=C(/C=C/c1ccccc1)c1ccccc1 [drawing 102, chalcone, reference compound]
Estimated rate constant k [5]: 0.034 min⁻¹

COc1ccc(C(=O)/C=C/c2ccccc2)cc1 [drawing 103, 4′-methoxychalcone]
Estimated rate constant k [5]: 0.016 min⁻¹

COc1ccc(/C=C/C(=O)c2ccccc2)c(OC)c1 [drawing 104]
Estimated rate constant k [5]: 0.0033 min⁻¹

O=C(/C=C/c1ccc(O)cc1)c1ccc(O)cc1 [drawing 105]
Estimated rate constant k [5]: 0.0020 min⁻¹
